This is an account of results in patent US9441017B2, “Water-soluble polypeptides comprised of repeat modules, method for preparing the same and method for a target-specific polypeptide and analysis of biological activity thereof” (priority 2011, dated 2016).

Entries after “also recorded” stand apart in the source; their conditions may differ.

Assay [1] has as its system LPS signal transduction in differentiated THP-1 cells. Nature of the assay: TNF-α secretion of LPS-treated, PMA-differentiated THP-1 cells by ELISA. In kind it is cell-based, human. The following applies: differentiated THP-1, 20 ng/ml LPS, 6 hours. How it is done:
First, THP-1 monocyte (TIB-202TM, ATCC) was cultured in RPMI containing 10% FBS (Fetal Bovine Serum) and 50 µM 2-mercaptoethanol at 37° C. and 5% CO2. When cell density reached 90%, they were washed with a DPBS buffer solution (pH 7.4). Then, to increase the sensitivity to LPS, the cells were suspended in a medium supplemented with 200 nM PMA (phorbol 12-myristate-13-acetate), and aliquoted to a 96-well plate in a density of 2.5×10^4/well, followed by incubation for 72 hours at 37° C. and 5% CO2 for differentiation.
Prior to the experiment, 10 μg/ml of InlB-VLR and MD-2-added RPMI medium, and 10 μg/ml of MD-2 and 10 μg/ml of IVLR-added medium, 10 μg/ml of TV3-added medium, and 10 μg/ml of TV-3 and MD-2-added medium as control groups were prepared and left at 37° C. for 1 hour. Then, THP-1 differentiated into macrophage by PMA was washed with DPBS buffer solution (pH 7.4) three times, and the sample-containing RPMI media were treated with 20 ng/ml of LPS and THP-1, followed by incubation at 37° C. and 5% CO2 for 6 hours. After 6 hours, a predetermined amount of culture was taken from each well, and diluted 4-8 fold using DPBS buffer solution (pH 7.4), followed by ELISA (Enzyme-Linked Immunosorbent Assays) for the secreted TNF-α.
Monocyte THP-1 (TIB-202TM, ATCC) was cultured in RPMI media supplemented with 10% Fetal Bovine Serum (FBS) and 50 µM of 2-mercaptoethanol at 37° C. and 5% CO2. When the cells reached 90% confluence, they were washed with PBS buffer solution (pH 7.4). In order to increase LPS sensitivity, the cells were suspended in RPMI media containing 200 nM of PMA (phorbol 12-myristate-13-acetate), and plated in a 96-well plate at a density of 2.5×10^4 cells/well, and differentiated at 37° C. and 5% CO2 for 72 hours.
Prior to the experiment, the LPS inhibitor polymyxin B was diluted in RPMI at a concentration of 1-100 μg/ml, and incubated at 37° C. for 1 hour. […] The results were calculated from a standard curve of TNF-α.

The conditions of assay [2]: reported, Akashi et al. 2003; read-out: binding affinity (Kd) for LPS; cited from earlier work.
In assay [3] the test system is TLR4/MD-2 receptor activation by LPS. Nature of the assay: NF-κB firefly/Renilla luciferase reporter assay in HEK293/hTLR4A-MD2-CD14 cells. Type of assay: cell-based, human. The conditions noted are these: HEK293/hTLR4A-MD2-CD14, 10 ng/ml LPS, 6 hours. As for the experimental part: In order to monitor activation of TLR4-MD-2 receptor by LPS, an HEK293/hTLR4A-MD2-CD14 cell line (Invivogen) stably expressing TLR4 and MD2, CD14 genes, prepared by introduction of the genes into HEK293 cell, was used. The HEK293/hTLR4A-MD2-CD14 cell line was subcultured in an RPMI medium (Invitrogen) supplemented with 10% Fetal Bovine Serum (FBS) in an incubator at 37° C. and 5% CO2, and then used for the experiment.
In the present invention, the LPS inhibitor, polymyxin B (Invivogen) and the LPS antagonist, LPS-RS (Invivogen) were diluted in RPMI media at a concentration of 0.01-100 μg/ml, and reacted with 10 ng/ml of LPS at 37° C. for 1 hour. […]
First, the media were removed from the 24-well plate, and the plate was washed with a PBS buffer solution twice, and then 200 μl of passive lysis buffer (PLB) was added to each well for cell lysis. After 30 minutes, 20 μl of cell lysate was transferred to a new 96 well-plate, and then 100 μl of LAR II reagent containing a substrate of firefly luciferase was added to measure luminescence using a VICTOR X Multilabel Plate Reader (PerkinElmer) for 0.5 seconds. After measurement of firefly luciferase luminescence, 100 μl of STOP & GLO reagent containing a substrate of Renilla luciferase was added to measure Renilla luciferase luminescence for 0.5 second. […]

Take “MD-2: Myeloid differentiation protein-2, also called lymphocyte antigen 96, a glycoprotein that binds LPS”: in assay [1], the “inhibitory effect on LPS signal transduction (TNF-α secretion)” value (“inhibitory effect … (TNF-α secretion)” below) was “weak inhibitory effect”. Also, in assay [2], the Kd is 65 nM.

On to “TLR4/MD-2 complex: complex of Toll-like receptor 4 with MD-2”, for which the Kd in assay [2] was 3 nM. On to polymyxin B, for which, in assay [1], the “inhibitory effect … (TNF-α secretion)” value is listed as “reduction in TNF-α secretion; also recorded: reduction in LPS signal transduction”. The “inhibitory effect on LPS signal transduction (relative firefly luciferase activity)” value in assay [3] is listed as “relatively reduced luciferase activity; also recorded: relative reduction of firefly luciferase activity”.

On to “sTLR4: soluble extracellular domain of cell membrane receptor TLR4”, for which, in assay [1], the “inhibitory effect … (TNF-α secretion)” value was “no LPS blocking activity”. Further, the “inhibitory effect on LPS signal transduction (relative firefly luciferase activity)” value in assay [3] is on record as “no LPS blocking activity”.
